# Measured values reported in patent US7662936B2, “Mass spectrometry of antibody conjugates” (priority 2004, dated 2010).
# Where a SMILES comes first, the peptide text is derived from it. [ ]: non-standard residue; d: D form. The star is where a group is joined. Dolaproine = CO[C@@H]([C@@H]1CCCN1)[C@@H](C)C(=O)O; Dil = CC[C@H](C)[C@H](NC)[C@@H](CC(=O)O)OC; X1 = C[C@@H](N*)[C@@H](O)c1ccccc1; NMeV = CN[C@H](C(=O)O)C(C)C
# Tests used:
# [1] = Rat study of trastuzumab-MC-val-cit-PAB-MMAE (Example 8): clinical observations, mortality, body weight; assay type: in vivo, Sprague-Dawley rats
# Description: Groups 2 and 3 were administered a preparation of Tr-MC-val-cit-PAB-MMAE with average drug loading of 8.7 MMAE/Tr. Groups 4, 5, and 6 were administered a preparation of Tr-MC-val-cit-PAB-MMAE with average drug loading of 5.3 MMAE/Tr. […] Group 6 received the highest dose of 4209 μg MMAE/m^2.
# The dose solutions were administered by a single intravenous bolus tail-vein injection on Study Day 1 at a dose volume of 10 ml/kg. […] Body weights of the animals were measured pre-dose on Study Day 1 and daily thereafter. Whole blood was collected into EDTA containing tubes for hematology parameters and complete blood counts. Whole blood was collected into serum separator tubes for clinical chemistry parameters. Blood samples were collected pre-dose on […], and on Study Days 3 and 5. Whole blood was also collected into lithium heparin containing tubes and the plasma was frozen at −70° C. for later analysis.
# [2] = cited from earlier work
# [3] = more cytotoxic; cited from earlier work
SMILES,"appearance of animals throughout the 5 days on study ([1]; Group 7, free MMAE 0.206 mg/kg, single iv bolus, 6 female rats)","changes in body weight ([1]; groups 2, 4 and 7, comparable amounts of MMAE (840 ug/m^2))",adverse effects leading to discontinuation of clinical trials [2],"cytotoxicity relative to conventional cancer chemotherapeutic agents like methotrexate, daunorubicin, and vincristine [3]"
CC[C@H](C)[C@@H]([C@@H](CC(=O)N1CCC[C@H]1[C@H](OC)[C@@H](C)C(=O)N[C@H](C)[C@@H](O)c1ccccc1)OC)N(C)C(=O)[C@@H](NC(=O)[C@@H](NC)C(C)C)C(C)C [MMAE] (H-[NMeV]V[Dil][Dolaproine]-X1),appeared healthy,comparable changes in body weight,–,–
COc1cc2cc(c1Cl)N(C)C(=O)C[C@H](OC(=O)[C@H](C)N(C)C(C)=O)[C@]1(C)O[C@H]1[C@H](C)[C@@H]1C[C@@](O)(NC(=O)O1)[C@H](OC)/C=C/C=C(\C)C2 [Maytansine],–,–,serious adverse effects on the central nervous system and gastrointestinal system,100-to 1000 fold
